“And” between values parts separate entries of the source, which are not always exact repeats. Identical values can stand only once. Like-named read-outs stand apart in the source and are kept apart here.

For one data set, the system named is subcutaneous TUBO tumors. Kind of data set: Subcutaneous TUBO tumor growth and survival in BALB/neuT mice, sunitinib malate with cancer vaccine. In kind it is in vivo, mouse. As to conditions: FIG. 33D; Sutent 20 mg/kg for 34 days combined with cancer vaccine.
A short description of data set [1]: Kinetics of blood sunitinib by LC/MS/MS in BALB/neuT mice with subcutaneous TUBO tumors. The class given is in vivo, mouse. As to conditions: for concentration at 2 h: peak at 2 hrs. As to the method: The kinetics of blood sunitinib was investigated in BALB/neuT mice with subcutaneous TUBO tumors. Briefly, 20 mice per each treatment group were given Sutent orally, at 20 mg/kg once a day (SID) or at 10 mg/kg twice a day (BID) with 6 hr intervals, 6 days after tumor implantation. Submandibular blood from 2-3 mice was collected into lithium heparin tubes at several time points after Sutent dosing as indicated (0, 2, 4, 6, 8, 10, 12, and 24 hr). The plasma supernatant was recovered from the tubes after centrifugation at ×1000 g for 15 min. and the sunitinib levels from the plasma samples were measured by LC/MS/MS. The mean and standard error of the mean of each group at each time point is plotted.

The subject of data set [2] is Myeloid Derived Suppressor Cells (MDSC). Kind of data set: Adoptively transferred MDSC recovered from spleen of BALB/c mice dosed with sunitinib. The class given is in vivo, mouse. As to conditions: CFSE+, CD3−, GR1+, CD11b+ cells, 2 days post adoptive transfer, vehicle 17470 +/− 2017.
Protocol: To generate MDSC enriched splenocytes, TUBO cells (1×10^6) were implanted into the flanks of 5 BALB/neuT mice, and left for approx. 20-30 days until tumor volume reached between 1000-1500 mm^3. Mice were then sacrificed, spleens removed and the MDSC enriched splenocytes recovered. Splenocytes were labeled for 10 minutes with 5 μM CFSE, washed with PBS and counted. Labeled cells were subsequently resuspended at 5×10^7 splenocytes/ml in PBS solution and adoptively transferred via an i.v. tail vein injection into naïve BALB/c recipient mice. Three days prior to adoptive transfer, the recipient mice began bi-daily dosing with vehicle or sunitinib malate (Sutent) at 5 mg/kg, 10 mg/kg and 20 mg/kg. Following adoptive transfer, recipient mice continued to receive bi-daily dosing of Vehicle or sunitinib for two further days, after which point the mice were sacrificed, spleens removed, splenocytes recovered and processed for phenotypic analysis.
Splenocytes were counted and resuspended at 5×10^6 cells/ml in FACS staining buffer (PBS, 0.2% (w/v) bovine serum albumin, and 0.02% (w/v) Sodium Azide). For flow cytometry staining of splenocytes, 2.5×10^6 cells were first incubated with anti-bodies to CD16/CD32, 10 minutes at 4° C., to block Fc receptors and minimize non-specific binding. Splenocytes were then stained for 20 minutes at 4° C. with appropriate fluorophore conjugated antibodies (Biolegend) to murine cell surface markers. For T cells (anti-CD3 (Pacific Blue), clone 17A2) and for MDSC (anti-GR-1 (APC), clone RB6-8C5 and anti-CD11b (PerCp Cy5.5), clone M1/70). A live/dead stain was also included. […] To monitor the effect of Sunitinib or Vehicle on the adoptively transferred MDSC survival, we calculated the percentage of CFSE+,CD3−,GR1+,CD11b+ in the live, singlet gate. We then determined the number of adoptively transferred MDSC per spleen by calculating what actual cell number the percentage represented of total splenocytes count. Data was analyzed by FloJo and Graph pad software.
The next data set relates to phosphorylated STAT3. Put plainly: Phosphor-STAT3 ELISA of spleen extracts of TUBO tumor bearing BALB/neuT mice after Sutent. In kind it is in vivo, mouse. As to the method: (§1) The acute effect of Sutent on the phosphorylation status of STAT3 in the spleen was investigated in a subcutaneous tumor mouse model to evaluate the direct immunomodulatory effects of the compound. Briefly, 10-12 week old female BALB/neuT mice were implanted with 1e6 TUBO cells subcutaneously in the right flank. After forty one days post tumor implant, Sutent was given by oral gavage at 20 mg/kg. At 0, 1, 3, 7 and 24 hrs post Sutent dosing, three animals per timepoint were sacrificed under IAUCUC guidelines and spleens were immediately snap frozen in liquid nitrogen to preserve the phosphorylation status. Spleens from female BALB/c mice were snap frozen to use as healthy mice controls.
(§2) Snap frozen spleens were homogenized at 100 mg tissue per 500 μL lysis buffer (70 mM NaCl, 50 mM β-glycerol phosphate, 10 mM HEPES, 1% Triton X-100, 100 mM Na3VO4, 100 mM PMSF, 1 mg/mL leupeptin) using a polytron tissue homogenizer. Resulting digests were centrifuged at 10,000 g for 15 minutes. The supernatant was isolated and protein concentrations were determined using BCA protein assay kit (Pierce, Rockford, Ill.). Forty micrograms of protein were added to each well of either a total STAT3 (eBioscience, cat no. 85-86101-11) or phosphor-STAT3 (eBioscience, cat no. 85-86102-11) ELISA Kit. Relative levels of either protein were compared with standards provided in the kit and with standards purchased independently (Signaling Technologies, cat no. 9333-S).
(ELISA stands for enzyme-linked immunosorbent assay.)

The subject of a further data set is total STAT3. Put plainly: Total STAT3 ELISA of spleen extracts of TUBO tumor bearing BALB/neuT mice after Sutent. In kind it is in vivo, mouse. On the procedure: as §1, §2
For data set [3] the following is noted: Mendel et al.; cited from earlier work.
For data set [4] the following is noted: intravenous infusion, cited from earlier work.
The next data set concerns 293 cells. Put plainly: Expression of PSMA constructs in transfected 293 cells by FACS. The class given is cell-based. As to conditions: 293 cells transfected with PJV7563 vector, stained with mouse anti-PSMA antibody three days later; cell surface expression. As to the method: The expression of the PSMA cytosolic, secreted, and modified antigens was determined by FACS. Mammalian 293 cells were transfected with the PJV7563 PMED vectors encoding the various immunogenic PSMA polypeptides. Three days later, the 293 cells were stained with mouse anti-PSMA antibody, followed with a fluorescent conjugated (FITC) rat anti-mouse secondary antibody.
For orientation: A flow cytometer gives signals particle by particle.

In a further data set the test system is human PSMA. Put plainly: ELISA, serum anti-PSMA antibody titers after PMED DNA vaccination. As to conditions: Example 7, FIG. 28; Pasteur and C57BL/6 mice; day 35; within the same strain. The class given is in vivo. On the procedure: Serum was subjected to enzyme-linked immunosorbent assays (ELISA) to determine the anti-PSMA and anti-PSCA antibody titers. In brief, ELISA plates were coated with 1 μg/ml of human PSMA or PSCA and incubated overnight at 4° C. Plates were then blocked and incubated at RT for 1 h with 1% bovine serum albumin (BSA). Each serum sample was serially diluted in duplicate starting at a 1:100 dilution and incubated for 1 h at RT. After washing, a horseradish-peroxidise (HRP)-conjugated goat anti-mouse polyclonal IgG antibody was incubated at RT for 1 h. After washing, the TMB Peroxidase EIA-Substrate was incubated at RT for 30 min. The colorimetric reaction was stopped by addition 1N sulfuric acid and the absorbance then read at 450 nm. Titration curves were plotted for each serum sample (sample dilution versus absorbance). The serum titer (subsequently transformed into reciprocal titer) was then taken as the most dilute serum sample tested with an optical density (OD) value of above the lower limit of detection (LLOD; background plus 3 standard deviations) or the serum dilution calculated to achieve an OD value of 1.0. […]
The anti-PSMA and anti-PSCA antibody titers in the serum was determined using ELISA as described in Example 5. […]
Antibody responses induced by the modified and full-length PSMA vaccines were measured in serum from each animal collected on day 35. […]

Data set [5] deals with hPSMA full-length protein. Put plainly: IFN-γ ELISPOT, hPSMA modified versus full-length DNA vaccine in C57BL/6 mice. In kind it is in vivo, human. As to conditions: Example 7, FIG. 26; C57BL/6, PMED days 0, 14, 28; day 35. From the text: The immune responses induced by DNA vaccination using a construct encoding an immunogenic PSMA polypeptide (the “human PSMA modified antigen” or “hPSMA modified”) consisting 15-750 amino acids (aa) of the native human PSMA protein of SEQ ID NO: 1 were compared with those induced by the native human full-length PSMA protein (hPSMA full length). Groups of female C57BL/6 mice or female Pasteur (HLA-A2/DR1) transgenic mice were primed on day 0 and boosted on days 14, 28 by PMED administration with a 2 μg dose of a DNA vaccine encoding either hPSMA full-length or hPSMA modified protein. Mice were bled and sacrificed on day 35 (7 days after the third vaccination) and T cell immune responses against the hPSMA full-length protein were determined in splenocytes by IFN-γ ELISPOT assay. For C57BL/6 mice, single cell suspensions of 5×10^5 splenocytes from individual animals were plated per well with […] purified hPSMA protein, 5×10^4 TRAMP-C2 cells alone, or TRAMP-C2 cells expressing hPSMA or a PSMA-PSA-PSCA fusion protein. […] Responses in Pasteur mice were also determined using 10 μg/ml purified PSMA protein or 5×10^4 SK-Mel5 cells that had been transduced with Adenoviral vectors expressing a control protein (Ad-eGFP) or the full-length human PSMA protein (Ad-hPSMA). […] The number of IFN-γ SFC was counted by a CTL reader. […]

Where [6] appears, read: 1 hr after Sutent 20 mg/kg oral gavage.
Where [7] appears, read: 3 hrs after Sutent 20 mg/kg oral gavage.
[8] abbreviates: 7 hrs after Sutent 20 mg/kg oral gavage.
[9] abbreviates: 24 hrs after Sutent 20 mg/kg oral gavage.

For `CCN(CC)CCNC(=O)c1c(C)[nH]c(/C=C2\C(=O)Nc3ccc(F)cc32)c1C` [Sunitinib, butanedioic acid, hydroxy-, (2S)-, compound with N-[2-(diethylamino)ethyl]-5-[(Z)-(5-fluoro-1,2-dihydro-2-oxo-3H-indol-3-ylidine)methyl]-2,4-dimethyl-1H-pyrrole-3-carboxamide (1:1)], the “animals with significantly impaired progression of the tumor after discontinuation of Sutent treatment” value with subcutaneous TUBO tumors is reported as 60 % of the animals. For the same compound, the “time by which sunitinib cleared the blood” value in [1] (10 mg/kg BID orally, after the second dose) was at most 18 h; in data set [1] (20 mg/kg SID orally, post Sutent dosing), at most 12 h. Besides, the concentration at 2 h in data set [1] (BALB/neuT, mouse, plasma, oral, 10 mg/kg BID (6 hr interval) orally, read-out: blood sunitinib level) was over 50 ng/mL; in data set [1] (BALB/neuT, mouse, plasma, oral, 20 mg/kg SID orally, read-out: blood sunitinib level), over 50 ng/mL. Further, the concentration at 4 h in data set [1] (BALB/neuT, mouse, plasma, oral, 10 mg/kg BID orally, by 4 hrs, read-out: blood sunitinib level) is under 50 ng/mL. Also, the concentration at 6 h in data set [1] (BALB/neuT, mouse, plasma, oral, 20 mg/kg SID orally, at 6 hrs, read-out: blood sunitinib level) is 50 ng/mL. Also, the entries for the “MDSC #/spleen Mean +/− SEM” value in [2] (Sunitinib 5 mg/kg bi-daily), in data set [2] (Sunitinib 10 mg/kg bi-daily) and in [2] (Sunitinib 20 mg/kg bi-daily) were 10980 +/− 1082, 4207 +/− 338 and 4440 +/− 440, respectively. The “Phospho-STAT3 relative level, Mean” value with phosphorylated STAT3 (setting [6]) turned out to be 0.23; in the data set with phosphorylated STAT3 (setting [7]), 0.19; with phosphorylated STAT3 (setting [8]), 0.27; in the data set on phosphorylated STAT3 (setting [9]) it was 1.44. Further, the “Phospho-STAT3 relative level, individual values” was 0.26 and 0.25 and 0.19 in the data set on phosphorylated STAT3 (setting [6]); 0.19 and 0.15 and 0.22 in the data set with phosphorylated STAT3 (setting [7]); 0.19 and 0.31 and 0.29 with phosphorylated STAT3 (setting [8]); 1.54 and 1.30 and 1.47 in the data set on phosphorylated STAT3 (setting [9]). In addition, the “Total STAT3 relative level, Mean” value in the data set on total STAT3 (setting [6]) is on record as 0.09; in the data set on total STAT3 (setting [7]), 0.13; in the data set on total STAT3 (setting [8]) it was 0.08; in the data set with total STAT3 (setting [9]), 0.08. For the same compound, the “Total STAT3 relative level, individual values” is 0.12 and 0.08 (2×) in the data set with total STAT3 (setting [6]); 0.15 and 0.09 and 0.16 in the data set with total STAT3 (setting [7]); 0.10 and 0.07 and 0.08 with total STAT3 (setting [8]); 0.08 with total STAT3 (setting [9]). Also, the “minimum sunitinib blood level necessary to effectively inhibit tumor growth in monotherapy” value in data set [3] is 50 ng/mL.

For “CP-870893: fully human agonistic CD40 monoclonal antibody, SEQ ID NO: 40 and 41”, in data set [4] (patients with advanced solid tumors), the “maximum tolerated dose (MTD)” value was 0.2 mg/kg. The dose-limiting toxicities result in data set [4] (phase I clinical study) was “grade 3 CRS and grade 3 urticaria”.

Turning to “full length human PSMA (SEQ ID NO: 1): native human full-length PSMA protein (aa 1-750), SEQ ID NO: 1; tested as DNA vaccine”, the “Average mean fluorescent intensity” value in the data set with 293 cells amounted to 6425. The “serum anti-PSMA antibody titers” value with human PSMA was “equivalent anti-PSMA antibody titer”. The “IFN-γ T cell responses to TRAMP C2-PSMA or purified hPSMA protein” value in [5] was “equivalent T cell immune responses”.
